The target of series [1] is T1, fibrils of β-amyloid peptide (human Aβ1–42) (Homo sapiens, UniProt P05067).
T1 construct: amyloid β protein fragment 1–42 (MW = 4514.04); purchased Merck-Sigma-Aldrich
Briefly: Fluorescence titration of sensors with β-amyloid fibrils (Kd by non-linear fitting). The series is classed as binding. The settings on record: for Kd: fibrils of β-amyloid peptide, sensor 1.0 × 10^−6 M, protein 0 to 2.0 × 10^−6 M, ICT band excitation/emission maxima, read-out: Binding constants values (Kd) and standard deviations. The method, then: Amyloid fibrils from human Aβ1–42 peptide were prepared using a procedure that combines several protocols described in the literature. A 2.2 × 10^−4 M solution of commercially available Aβ1–42 peptide was prepared in a small volume of 100 mM sodium phosphate buffer (pH = 7.04) containing EDTA in concentration 10 mM. This solution was incubated at 37 °C during 72 h in a dry bath supported on an orbital shaker working at 200 rpm. […] Subsequently, 10 μL of the freshly prepared amyloid beta fibrils (c = 1.0 × 10^−4 M) were added to each of the solutions containing the sensors. After a stabilization period of 10 min after each fibril addition at 37 °C, and then equilibration time of 5 min at room temperature, fluorescence emission spectra were recorded for each sensor at their excitation maxima.

The test system of series [2] is caspase-3 activity in HEK293-Tau3R cells. Briefly: Caspase-3 activity in cells treated with okadaic acid (Ac-DEVD-AMC substrate). It is filed as cell-based, human. Particulars: for Caspase-3 activation induced by okadaic acid: 25 nM okadaic acid with compound at 10 or 100 nM; for Decrease of caspase-3 activity compared to cells treated with okadaic acid alone: 100 nM compound, 25 nM okadaic acid, p < 0.05. How it is done: HEK293-Tau3R cells in logarithmic growth phase were digested with trypsin at a concentration of 0.25% and then resuspended in the medium and subcultured in Petri dishes (100 × 15 mm) at a seeding density of 1.5 × 10^5 cells/mL. […] Upon completion of the treatment, cells were collected, washed twice with PBS (pH 7.4) and pelleted by centrifugation at 1000× g for 5 min. The pellet was then resuspended in PBS and centrifuged again at 1000× g for 10 min at 4 °C to remove the supernatant. The resulting cell pellets were lysed in a buffer containing 10 mM Tris–HCl (pH 7.5) with 0.5% CHAPS, 1 mM MgCl2, 1 mM EGTA, 1 mM EDTA, 10% glycerol, 5 mM β-mercaptoethanol, 1 mM DTT, 1 mM phenylmethylsulfonyl fluoride (PMSF), 100 μM leupeptin and 1 μM pepstatin. Following a 30 min incubation on ice, the lysates were clarified by centrifugation at 13,000× g for 5 min. Protein concentrations in the supernatants were determined using the bicinchoninic acid (BCA) assay.
The caspase 3 activity assay performed using the known fluorogenic substrate Ac-DEVD-AMC. HEK293-Tau3R cells were harvested, washed with ice-cold PBS and lysed in 100 μL of lysis buffer containing 50 mM HEPES (pH 7.4), 100 mM NaCl, 0.1% CHAPS, 10% glycerol, 10 mM DTT, 0.1 mM EDTA and protease inhibitors (1 μg/μL each of leupeptin, pepstatin and aprotinin). The lysates were, sonicated and centrifuged at 14,000× g for 15 min at 4 °C. For the assay, 20 μg of cellular protein from the lysates were incubated with 20 µM caspase 3 substrate in assay buffer (50 mM HEPES, pH 7.4, 100 mM NaCl, 0.1% CHAPS, 10% glycerol, 10 mM DTT) for 2 h at 37 °C. Substrate cleavage was monitored using a microplate fluorescence reader with excitation at 360 nm and emission at 460 nm. Caspase activity was determined based on the cleavage of the fluorogenic substrate and is expressed as fluorescence arbitrary units.

Series [3] deals with T2, neurofibrillary tangles (phosphorylated tau) (Homo sapiens, UniProt P10636). Briefly: Ex vivo staining of temporal neocortex of an Alzheimer's disease patient, AT8 antibody co-labelling. Particulars: temporal neocortex of an AD patient; AT8 antibody detects phosphorylated tau. How it is done: (§1) AD human tissue samples were analyzed within the context of a previous study that utilized fixed coronal sections to investigate the progression of Alzheimer’s disease. Brain tissue samples from AD patients were obtained from the Banco de Tejidos Fundación CIEN (Dr. A. Rábano, Área de Neuropatología, Centro Alzheimer, Fundación Reina Sofía, Madrid, Spain). Immediately after removal, the brains were fixed in cold 4% paraformaldehyde in 0.1 M phosphate buffer (pH 7.4). After 2 h, the tissue was sectioned into small blocks and post-fixed in the same medium at 4 °C for 24–48 h. Serial coronal sections (50 μm thick) were prepared using a vibratome (St. Louis, MO, USA), cryoprotected in a 30% sucrose solution in 0.1 M phosphate buffer and stored in an ethylene glycol/glycerol solution at −20 °C until use. […]
T2 sequence (P10636 623-758 limits assumed): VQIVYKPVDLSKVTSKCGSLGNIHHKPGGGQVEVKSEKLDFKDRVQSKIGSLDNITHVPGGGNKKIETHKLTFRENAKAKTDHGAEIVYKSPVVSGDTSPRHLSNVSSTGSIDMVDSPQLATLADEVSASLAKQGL
(§2) Image acquisition was performed with a Zeiss LSM 710 confocal laser scanning system (Carl Zeiss Microscopy GmbH, Jena, Germany). They were recorded at 0.5 μm intervals (63 × objective) through separate channels, and ZEN 2012 software (Zeiss) was then used to construct composite images from each optical series by combining the images recorded through the different channels (image resolution 1024 × 1024 pixels; pixel size 188 nm). […]

Series [4] has as its target T3, amyloid-beta plaques (Homo sapiens, UniProt P05067). Briefly: Ex vivo staining of temporal neocortex of an Alzheimer's disease patient, amyloid-beta antibody co-labelling. Particulars: temporal neocortex of an AD patient; 20 μM compound, 2 h. The method, then: as §1, §2
Series [5] concerns the target T3, amyloid-beta plaques. Briefly: Ex vivo staining of somatosensory cortex of APP/PS1 transgenic mice (confocal microscopy). Particulars: plaques most distinctly labeled at 458 nm excitation, also 488 and 555 nm, none at 594 or 405 nm.
Excerpt: Compound 6b was chosen for an initial labeling study by assessing its binding properties in the somatosensory cortex of APP/PS1 transgenic mice, a model of Alzheimer’s disease that develops amyloid-beta deposits in the brain from 6 to 7 months of age. […] Amyloid-beta plaques were most distinctly labeled at an excitation wavelength of 458 nm, with effective staining also being observed at 488 nm and 555 nm (Figure 8A–D). In contrast, no staining was detected when exciting at 594 nm or 405 nm (Figure 8E,F).
The free-floating sections were rinsed in 0.1 M phosphate buffer (PB) and incubated for 2 h at room temperature with a 20 μM solution of each compound 6, prepared by diluting a 1.0 × 10^−4 M stock solution in DMSO with phosphate buffer. After incubation, the sections were rinsed again in 0.1 M phosphate buffer, mounted using ProLong Gold Antifade Reagent (Invitrogen Corporation, Carlsbad, CA, USA), and stored at −20 °C.
as §2

Series [6] concerns the target T4, AcPHF6 (Ac-VQIVYK-NH2) tau-hexapeptide (Homo sapiens, UniProt P10636).
T4 construct: purchased Bachem (Bubendorf BL, Switzerland)
Briefly: AcPHF6 aggregation inhibition, Thioflavin T fluorescence. The series is classed as biochemical. The settings on record: 1 μM, non-toxic concentration; Figure 12. The method, then:
This in vitro assay was performed using the N-acetylated and C-amidated hexapeptide AcPHF6 (Ac-VQIVYK-NH2), derived from the ^306VQIVYK^311 sequence found in the native […]. This region of the tau protein is involved in fibril aggregation processes and is commonly used as a model for screening tau aggregation inhibitors.
In brief, AcPHF6 peptide was dissolved in 50 mM phosphate buffer (pH 7.4) at a concentration of 1 mM and vortexed to obtain a homogeneous solution. For aggregation inhibition experiments, 100 μM AcPHF6 peptide was mixed with compounds 6 and incubated at 37 °C for 4 days. The degree of AcPHF6 aggregation was determined using Thioflavin-T fluorescence analyses.
Briefly, the screen of the styrylquinolines was performed based on Thioflavin T fluorescence. All assays were done on flat black 96-well plates. […] Immediately before the experiment, 1 μM heparin was added to initiate AcPHF6 aggregation. AcPHF6 alone in buffer reaction served as a control for the screen. Fluorescence values were taken at 24 h intervals for 72 h, at 37 °C and in replicates, using a microplate reader. […] All assays were performed at least twice to ensure reproducibility.

Series [7] addresses T5, Aβ1–42 peptide (Homo sapiens, UniProt P05067).
T5 construct: amyloid β protein fragment 1–42 (MW = 4514.04); purchased Merck-Sigma-Aldrich
Briefly: Aβ1–42 aggregation inhibition, Thioflavin T fluorescence. It is filed as biochemical. Particulars: 0.5 μM compound; Figure 11. The method, then: A 0.5 mg/mL solution of Aβ1–42 peptide in 10% aqueous ammonium hydroxide was sonicated for 30 min to achieve monomerization. Solvent evaporation in a SpeedVac afforded a thin film that was dissolved in 60 mM NaOH, adjusting its concentration to 20 μM, as a stock solution. For aggregation inhibition experiments, 2 μM Aβ1–42 peptide was mixed with the styrylquinolines 6 and incubated for 4 days at 37 °C. The degree of Aβ aggregation was determined using Thioflavin-T fluorescence analysis.
All assays were done on flat black 96-well plates. […] Peptide Aβ1–42 alone in buffer reaction served as a control for the screen. Fluorescence values were measured at 37 °C in replicates using a microplate reader, with the measurement taken at 24 h intervals for 72 h. […] All assays were performed at least twice to ensure reproducibility.

The target of series [8] is β-amyloid protein. The settings on record: read-out: ThT-β-amyloid protein dissociation constant Kd, cited from earlier work.
The subject of series [9] is HEK293-Tau3R cells. Briefly: Cell viability, MTT assay. The series is classed as cell-based, human. The settings on record: 10 to 50 nM for 24 h.
Method: Cells were cultured in DMEM medium supplemented with 10% fetal bovine serum, 1 mM pyruvate, 2 mM glutamine and 0.2 mg/mL of the antibiotic zeocin. Cultures were maintained at 37 °C in a humidified atmosphere containing 5% CO2.
HEK293-Tau3R cells were seeded into 96-well polystyrene plates at a density of 20,000 cells per well and incubated at 37 °C for 24 h to allow cell adhesion. […] Cell viability was assessed by measuring metabolic activity through the reduction of MTT (3-(4,5-dimethylthiazol-2-yl)-2,5-diphenyltetrazolium bromide) to insoluble formazan. Absorbance values were measured at 550 nm using a microplate reader.
In series [10] the target is T2, neurofibrillary tangles (phosphorylated tau). Details: method as in PMID 16914838. The settings on record: brain samples from AD patients; cited from earlier work.

The values below come from publication PMC12428582, “2-Styrylquinolines with Push-Pull Architectures as Sensors for β-Amyloid Aggregation with Theranostic Properties” (International Journal of Molecular Sciences, 2025).

Where two headings read alike, the source gives them in different places.

A word on the Kd: it is the equilibrium constant for the complex coming apart.

T1 sequence (P05067 672-713 limits assumed): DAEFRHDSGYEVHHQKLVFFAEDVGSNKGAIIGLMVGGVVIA
T3 sequence (P05067 672-711 limits assumed): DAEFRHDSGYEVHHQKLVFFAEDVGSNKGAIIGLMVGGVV
T5 sequence (P05067 672-713 limits assumed): as the sequence (P05067 672-713 limits assumed) above

As to `CN(C)c1ccc(/C=C/c2ccc3cc(C=C(C#N)C#N)ccc3n2)cc1` [6a, (E)-2-((2-(4-(Dimethylamino)styryl)quinolin-6-yl)methylene)malononitrile], the Kd in [1] worked out at 2.43 ± 0.32 µM.
`CCN(CC)c1ccc(/C=C/c2ccc3cc(C=C(C#N)C#N)ccc3n2)cc1` [6b, (E)-2-((2-(4-(Diethylamino)styryl)quinolin-6-yl)methylene)malononitrile]: the “Caspase-3 activation induced by okadaic acid” value (shortened to “Caspase-3 activation induced”) in [2] is “significantly reduced”. Moreover, the “Labeling of neurofibrillary tangles” value in [3] is on record as “did not label neurofibrillary tangles”. In addition, in series [1], the dissociation constant (Kd) was 7.93 ± 0.63 µM. Moreover, in series [4], the “Labeling of amyloid-beta plaques” value is recorded as “specifically labeled amyloid-beta plaques”. Besides, the “Labeling of amyloid-beta deposits” value in series [5] is “specific binding to β-sheet amyloid structures”.
With `N#CC(C#N)=Cc1ccc2nc(/C=C/c3ccc(N4CCCCC4)cc3)ccc2c1` [6c, (E)-2-((2-(4-(Piperidin-1-yl)styryl)quinolin-6-yl)methylene)malononitrile], in series [3], the “Labeling of neurofibrillary tangles” value is recorded as “did not label neurofibrillary tangles”. Also, the dissociation constant (Kd) in [1] amounted to 8.19 ± 0.61 µM. For the same compound, the “Labeling of amyloid-beta plaques” value in series [4] is listed as “specifically labeled amyloid-beta plaques”.
On to `N#CC(C#N)=Cc1ccc2nc(/C=C/c3ccc(N4CCOCC4)cc3)ccc2c1` [6d, (E)-2-((2-(4-Morpholinostyryl)quinolin-6-yl)methylene)malononitrile], for which, in series [2], the “Caspase-3 activation induced” value is recorded as “significantly reduced”. Also, the dissociation constant (Kd) in series [1] was 6.6 ± 0.79 µM.
With `CC(=O)OCCN(CCOC(C)=O)c1ccc(/C=C/c2ccc3cc(C=C(C#N)C#N)ccc3n2)cc1` [6e, (E)-((4-(2-(6-(2,2-Dicyanovinyl)quinolin-2-yl)vinyl)phenyl)azanediyl)bis(ethane-2,1-diyl) diacetate], in series [2], the “Caspase-3 activation induced” value is on record as “significantly reduced” and the “Decrease of caspase-3 activity compared to cells treated with okadaic acid alone” value is “very similar results”. In addition, in series [6], the “AcPHF6 aggregation inhibition, ranking” value is recorded as “best result”. The Kd in series [1] was found to be 10.2 ± 1.53 µM. Also, the “Aβ1–42 aggregation inhibition, ranking” value in series [7] was “most active compound”.
For `Cc1ccc2c(c1)sc(-c1ccc(N(C)C)cc1)[n+]2C` [ThT, Thioflavin T], the Kd was 0.8 µM in [8] (ref 57), 2.56 µM in [8] (ref 58), 30.4 µM in [8] (ref 59) and 46 µM in [8] (ref 60).
On to `C=C1[C@@H](O)[C@@H]2O[C@]3(CC[C@H](/C=C/[C@@H](C)[C@@H]4CC(C)=C[C@@]5(O[C@H](C[C@@](C)(O)C(=O)O)CC[C@H]5O)O4)O3)CC[C@H]2O[C@@H]1[C@@H](O)C[C@H](C)[C@H]1O[C@@]2(CCCCO2)CC[C@H]1C` [okadaic acid, reference compound], for which the “Concentration from which caspase 3 activity began to rise” value in [2] (okadaic acid 10–50 nM) is given as at least 25 nM. Moreover, in [9], the “Concentrations at which a marked decline in cell viability was observed” value was “above 30 nM”.
Consider “(E)-2-((2-(2-(4-(Dimethylamino)naphthalen-1-yl)vinyl)quinolin-6-yl)-methylene)malononitrile [6g]”, for which, in series [2], the “Caspase-3 activation induced” value is given as “significantly reduced” and the “Decrease of caspase-3 activity compared to cells treated with okadaic acid alone” value was “more than 50%”. Further, in series [1] (excitation wavelength characteristic of each compound, Figure 6), the “Enhancement of fluorescence emission in the presence of beta-amyloid protein fibrils” value is on record as “greater difficulty in binding to the beta sheet structure of the protein”.
With Thioflavin S, the “Binding to beta-sheet structures and phosphorylated tau” value in series [10] was “bind both beta-sheet structures and phosphorylated tau”.
